Laboratory results taken from PMC4515429, “Anti-Biofilm and Immunomodulatory Activities of Peptides That Inhibit Biofilms Formed by Pathogens Isolated from Cystic Fibrosis Patients” (Antibiotics, 2014).
Where “and” joins values, the source holds several entries; their conditions need not be identical. Equal entries are not always repeated. Where no end group is shown, it is not given here.

What was measured:
[1] = test system: B. multivorans D2661 (Genomovar II); settings: polypropylene 96-well plate, BM2 glucose, 22 h, 37 °C, crystal violet, absorbance 595, at least two independent experiments
Method: (§1) To assess the biofilm-forming ability of the different clinical isolates, dilutions (1/100) of overnight cultures were incubated in 96-well polypropylene plates using BM2 glucose medium, as previously described.
(§2) Biofilm formation was initially analyzed using a static abiotic solid surface assay as described elsewhere. Dilutions (1/100) of overnight cultures were incubated in BM2 glucose medium (62 mM potassium phosphate buffer (pH 7), 7 mM (NH4)2SO4, 2 mM MgSO4, 10 μM FeSO4, 0.4% (wt/vol) glucose, 0.5% (wt/vol) Casamino Acids) in polypropylene microtiter plates (Fisher Scientific, Waltham, MA, USA) in the presence of the different peptides for 22 h at 37 °C. Planktonic cells were removed and biofilm cells adhering to the side of the tubes were stained with crystal violet, extracted into ethanol, and the optical density at 595 nm (OD595) measured using a microtiter plate reader (Bio-Tek Instruments Inc., Winooski, VT, USA). Peptides were added at time zero (prior to adding the diluted, overnight cultures) at various concentrations, and the decrease in biofilm formation was recorded at 22 h for P. aeruginosa, Burkholderia and Methicillin-resistant Staphylococcus aureus isolates.

[2] = test system: P. aeruginosa 7633 (Entire); settings: polypropylene 96-well plate, BM2 glucose, 22 h, 37 °C, crystal violet, absorbance 595, at least two independent experiments
Method: as §1, §2

[3] = test system: P. aeruginosa 1172 (Classic); settings: polypropylene 96-well plate, BM2 glucose, 22 h, 37 °C, crystal violet, absorbance 595, at least two independent experiments
Method: as §1, §2

[4] = test system: B. cenocepacia CEP0055 (IIIb); settings: polypropylene 96-well plate, BM2 glucose, 22 h, 37 °C, crystal violet, absorbance 595, at least two independent experiments
Method: as §1, §2

[5] = test system: P. aeruginosa 3330 (Classic); settings: polypropylene 96-well plate, BM2 glucose, 22 h, 37 °C, crystal violet, absorbance 595, at least two independent experiments
Method: as §1, §2

[6] = test system: B. cenocepacia C5424 (IIIa); settings: polypropylene 96-well plate, BM2 glucose, 22 h, 37 °C, crystal violet, absorbance 595, at least two independent experiments
Method: as §1, §2

[7] = test system: P. aeruginosa PA01; settings: polypropylene 96-well plate, BM2 glucose, 22 h, 37 °C, crystal violet, absorbance 595, at least two independent experiments
Method: as §1, §2

[8] = test system: B. stabilis C6061 (IV); settings: polypropylene 96-well plate, BM2 glucose, 22 h, 37 °C, crystal violet, absorbance 595, at least two independent experiments
Method: as §1, §2

[9] = test system: B. cenocepacia CEP509 (IIIb); settings: polypropylene 96-well plate, BM2 glucose, 22 h, 37 °C, crystal violet, absorbance 595, at least two independent experiments
Method: as §1, §2

[10] = test system: P. aeruginosa PA14; settings: polypropylene 96-well plate, BM2 glucose, 22 h, 37 °C, crystal violet, absorbance 595, at least two independent experiments
Method: as §1, §2

[11] = test system: P. aeruginosa 2631 (Classic); settings: polypropylene 96-well plate, BM2 glucose, 22 h, 37 °C, crystal violet, absorbance 595, at least two independent experiments
Method: as §1, §2

[12] = test system: P. aeruginosa 2955 (Dwarf); settings: polypropylene 96-well plate, BM2 glucose, 22 h, 37 °C, crystal violet, absorbance 595, at least two independent experiments
Method: as §1, §2

[13] = test system: P. aeruginosa 2639 (Mucoid); settings: polypropylene 96-well plate, BM2 glucose, 22 h, 37 °C, crystal violet, absorbance 595, at least two independent experiments
Method: as §1, §2

[14] = test system: B. ambifaria CEP0996 (VII); settings: polypropylene 96-well plate, BM2 glucose, 22 h, 37 °C, crystal violet, absorbance 595, at least two independent experiments
Method: as §1, §2

[15] = test system: P. aeruginosa 7632 (Classic); settings: polypropylene 96-well plate, BM2 glucose, 22 h, 37 °C, crystal violet, absorbance 595, at least two independent experiments
Method: as §1, §2

[16] = test system: B. cenocepacia 4813 (IIIa); settings: polypropylene 96-well plate, BM2 glucose, 22 h, 37 °C, crystal violet, absorbance 595, at least two independent experiments
Method: as §1, §2

[17] = test system: B. dolosa CEP0021 (VI); settings: polypropylene 96-well plate, BM2 glucose, 22 h, 37 °C, crystal violet, absorbance 595, at least two independent experiments
Method: as §1, §2

[18] = test system: P. aeruginosa 3195 (Classic); settings: polypropylene 96-well plate, BM2 glucose, 22 h, 37 °C, crystal violet, absorbance 595, at least two independent experiments
Method: as §1, §2

[19] = test system: P. aeruginosa 4608 (Mucoid); settings: planktonic cells; broth microdilution, BHI, 5 × 10^5 CFU/mL, 37 °C, 18 h; performed at least three times
Method: (§3) In addition to the wild type lab isolates Pseudomonas aeruginosa strains PAO1 and PA14, a variety of cystic fibrosis clinical isolates of P. aeruginosa and Burkholderia cepacia complex strains were utilized (Table 1). Planktonic cells from each of the P. aeruginosa and B. cepacia strains were grown in BM2 glucose or cation-adjusted Mueller-Hinton. The minimal inhibitory concentration (MIC) for peptides in brain-heart infusion (BHI) was assessed by the broth microdilution method with minor modifications for cationic peptides. […] MIC assays were performed in sterile 96-well polypropylene microtiter plates. […] The plates were incubated at 37 °C for 18 h.

[20] = test system: P. aeruginosa C4278 (Mucoid); settings: planktonic cells; broth microdilution, BHI, 5 × 10^5 CFU/mL, 37 °C, 18 h; performed at least three times
Method: as §3

[21] = test system: P. aeruginosa 4020 (Classic); settings: planktonic cells; broth microdilution, BHI, 5 × 10^5 CFU/mL, 37 °C, 18 h; performed at least three times
Method: as §3

[22] = test system: P. aeruginosa C2773 (Classic); settings: planktonic cells; broth microdilution, BHI, 5 × 10^5 CFU/mL, 37 °C, 18 h; performed at least three times
Method: as §3

[23] = test system: B. multivorans D2661 (Genomovar II); settings: planktonic cells; broth microdilution, BHI, 5 × 10^5 CFU/mL, 37 °C, 18 h; performed at least three times
Method: as §3

[24] = test system: P. aeruginosa 7633 (Entire); settings: planktonic cells; broth microdilution, BHI, 5 × 10^5 CFU/mL, 37 °C, 18 h; performed at least three times
Method: as §3

[25] = test system: P. aeruginosa 1172 (Classic); settings: planktonic cells; broth microdilution, BHI, 5 × 10^5 CFU/mL, 37 °C, 18 h; performed at least three times
Method: as §3

[26] = test system: B. cenocepacia CEP0055 (IIIb); settings: planktonic cells; broth microdilution, BHI, 5 × 10^5 CFU/mL, 37 °C, 18 h; performed at least three times
Method: as §3

[27] = test system: P. aeruginosa 3330 (Classic); settings: planktonic cells; broth microdilution, BHI, 5 × 10^5 CFU/mL, 37 °C, 18 h; performed at least three times
Method: as §3

[28] = test system: B. cenocepacia C5424 (IIIa); settings: planktonic cells; broth microdilution, BHI, 5 × 10^5 CFU/mL, 37 °C, 18 h; performed at least three times
Method: as §3

[29] = test system: P. aeruginosa PA01; settings: planktonic cells; broth microdilution, BHI, 5 × 10^5 CFU/mL, 37 °C, 18 h; performed at least three times
Method: as §3

[30] = test system: B. stabilis C6061 (IV); settings: planktonic cells; broth microdilution, BHI, 5 × 10^5 CFU/mL, 37 °C, 18 h; performed at least three times
Method: as §3

[31] = test system: B. cenocepacia CEP509 (IIIb); settings: planktonic cells; broth microdilution, BHI, 5 × 10^5 CFU/mL, 37 °C, 18 h; performed at least three times
Method: as §3

[32] = test system: P. aeruginosa PA14; settings: planktonic cells; broth microdilution, BHI, 5 × 10^5 CFU/mL, 37 °C, 18 h; performed at least three times
Method: as §3

[33] = test system: P. aeruginosa 2631 (Classic); settings: planktonic cells; broth microdilution, BHI, 5 × 10^5 CFU/mL, 37 °C, 18 h; performed at least three times
Method: as §3

[34] = test system: P. aeruginosa 2955 (Dwarf); settings: planktonic cells; broth microdilution, BHI, 5 × 10^5 CFU/mL, 37 °C, 18 h; performed at least three times
Method: as §3

[35] = test system: P. aeruginosa 2639 (Mucoid); settings: planktonic cells; broth microdilution, BHI, 5 × 10^5 CFU/mL, 37 °C, 18 h; performed at least three times
Method: as §3

[36] = test system: B. ambifaria CEP0996 (VII); settings: planktonic cells; broth microdilution, BHI, 5 × 10^5 CFU/mL, 37 °C, 18 h; performed at least three times
Method: as §3

[37] = test system: P. aeruginosa 7632 (Classic); settings: planktonic cells; broth microdilution, BHI, 5 × 10^5 CFU/mL, 37 °C, 18 h; performed at least three times
Method: as §3

[38] = test system: B. cenocepacia 4813 (IIIa); settings: planktonic cells; broth microdilution, BHI, 5 × 10^5 CFU/mL, 37 °C, 18 h; performed at least three times
Method: as §3

[39] = test system: P. aeruginosa C4276 (Classic); settings: planktonic cells; broth microdilution, BHI, 5 × 10^5 CFU/mL, 37 °C, 18 h; performed at least three times
Method: as §3

[40] = test system: B. dolosa CEP0021 (VI); settings: planktonic cells; broth microdilution, BHI, 5 × 10^5 CFU/mL, 37 °C, 18 h; performed at least three times
Method: as §3

[41] = test system: P. aeruginosa 3195 (Classic); settings: planktonic cells; broth microdilution, BHI, 5 × 10^5 CFU/mL, 37 °C, 18 h; performed at least three times
Method: as §3

VRLIVAVRIWRR-NH2 [Peptide 1018]
Inhibition by 10 µg/mL 1018 (biofilm formation) [1]: 75%
Inhibition by 10 µg/mL 1018 (biofilm formation) [2]: 49%
Inhibition by 10 µg/mL 1018 (biofilm formation) [3]: 37%
Inhibition by 10 µg/mL 1018 (biofilm formation) [4]: 58%
Inhibition by 10 µg/mL 1018 (biofilm formation) [5]: 33%
Inhibition by 10 µg/mL 1018 (biofilm formation) [6]: 59%
Inhibition by 10 µg/mL 1018 (biofilm formation) [7]: ~ 50% and 51%
Inhibition by 10 µg/mL 1018 (biofilm formation) [8]: 53%
Inhibition by 10 µg/mL 1018 (biofilm formation) [9]: 61%
Inhibition by 10 µg/mL 1018 (biofilm formation) [10]: ~ 50% and 49%
Inhibition by 10 µg/mL 1018 (biofilm formation) [11]: 44%
Inhibition by 10 µg/mL 1018 (biofilm formation) [12]: 41%
Inhibition by 10 µg/mL 1018 (biofilm formation) [13]: 44%
Inhibition by 10 µg/mL 1018 (biofilm formation) [14]: 62%
Inhibition by 10 µg/mL 1018 (biofilm formation) [15]: 19%
Inhibition by 10 µg/mL 1018 (biofilm formation) [16]: 52%
Inhibition by 10 µg/mL 1018 (biofilm formation) [17]: 55%
Inhibition by 10 µg/mL 1018 (biofilm formation) [18]: 37%
MIC [19]: 32 µg/mL
MIC [20]: 16 µg/mL
MIC [21]: 16 µg/mL
MIC [22]: 16 µg/mL
MIC [23]: >512 µg/mL
MIC [24]: 16 µg/mL
MIC [25]: 16 µg/mL
MIC [26]: 128 µg/mL
MIC [27]: 16 µg/mL
MIC [28]: 128 µg/mL
MIC [29]: 16 µg/mL
MIC [30]: 64 µg/mL
MIC [31]: >256 µg/mL
MIC [32]: 16 µg/mL
MIC [33]: 32 µg/mL
MIC [34]: 50 µg/mL
MIC [35]: 32 µg/mL
MIC [36]: 64 µg/mL
MIC [37]: 16 µg/mL
MIC [38]: >256 µg/mL
MIC [39]: 32 µg/mL
MIC [40]: >256 µg/mL
MIC [41]: 16 µg/mL
